Broadly, the Km is the substrate concentration at which the rate is half of its maximum.

SMILES strings stand for the structures.

This test deals with T1, rXylR.
T1 construct: gene XylR; mature GH10 xylanase, signal peptide (1-23) removed, N-terminal His6 tag (pET-28a(+)) kept; E. coli BL21; precursor 373 aa; mature N-terminus AEDTPEP by primer
The experiment in a line: p-nitrophenol release, Michaelis-Menten non-linear regression. Type of test: biochemical, Duganella sp. PAMC 27433. Conditions: 50 mM sodium phosphate pH 5.5, 40 °C; substrate 1-10 mM. The text has this: p-nitrophenol release, Michaelis-Menten non-linear regression on rXylR

Regarding `O=[N+]([O-])c1ccc(O[C@@H]2O[C@H](CO)[C@@H](O[C@@H]3O[C@H](CO)[C@@H](O)[C@H](O)[C@H]3O)[C@H](O)[C@H]2O)cc1` [pNP-β-D-cellobioside], the Km was 1210 µM.

These data come from publication PMC8147214, “Identification and Characterization of a Novel, Cold-Adapted D-Xylobiose- and D-Xylose-Releasing Endo-β-1,4-Xylanase from an Antarctic Soil Bacterium, Duganella sp. PAMC 27433” (Biomolecules, 2021).
